Experimental data taken from US10633338B2, “Binding Function 3 (BF3) site compounds as therapeutics and methods for their use” (THE UNIVERSITY OF BRITISH COLUMBIA, priority 2014, dated 2020).

Target: T1, androgen receptor (AR) (Homo sapiens, UniProt P10275, T878A)
T1 construct: stably transfected eGFP-expressing LNCaP human prostate cancer cells (LN-ARR2PB-eGFP) containing an androgen responsive probasin-derived promoter; endogenous in cells; host or cells: LNCaP (LN-ARR2PB-eGFP)
T1 sequence (P10275 1-920 T878A): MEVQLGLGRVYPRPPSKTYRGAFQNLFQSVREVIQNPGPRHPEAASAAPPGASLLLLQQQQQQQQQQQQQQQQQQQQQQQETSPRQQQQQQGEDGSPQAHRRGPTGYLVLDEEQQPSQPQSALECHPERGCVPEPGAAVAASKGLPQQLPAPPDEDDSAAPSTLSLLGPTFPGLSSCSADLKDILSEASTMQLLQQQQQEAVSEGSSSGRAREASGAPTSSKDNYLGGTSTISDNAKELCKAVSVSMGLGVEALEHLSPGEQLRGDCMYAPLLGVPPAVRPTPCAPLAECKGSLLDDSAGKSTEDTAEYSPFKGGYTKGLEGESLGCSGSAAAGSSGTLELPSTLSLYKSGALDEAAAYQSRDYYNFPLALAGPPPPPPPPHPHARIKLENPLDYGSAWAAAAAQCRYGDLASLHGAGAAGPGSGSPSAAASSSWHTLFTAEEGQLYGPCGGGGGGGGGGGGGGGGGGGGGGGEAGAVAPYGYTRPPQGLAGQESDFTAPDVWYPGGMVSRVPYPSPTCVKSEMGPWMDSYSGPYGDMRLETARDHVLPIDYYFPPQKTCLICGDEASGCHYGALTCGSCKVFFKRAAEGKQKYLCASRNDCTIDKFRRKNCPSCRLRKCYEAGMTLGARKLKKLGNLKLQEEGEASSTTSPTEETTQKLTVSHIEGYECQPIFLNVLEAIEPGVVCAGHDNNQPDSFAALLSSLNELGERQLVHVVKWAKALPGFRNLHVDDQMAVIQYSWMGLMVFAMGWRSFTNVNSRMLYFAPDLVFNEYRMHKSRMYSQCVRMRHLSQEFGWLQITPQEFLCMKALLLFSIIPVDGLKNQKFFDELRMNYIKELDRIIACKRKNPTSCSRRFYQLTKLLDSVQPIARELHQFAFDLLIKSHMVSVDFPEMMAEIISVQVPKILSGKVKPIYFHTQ
Experiment: eGFP cellular AR transcription assay
Format: cell-based
Conditions: LN-ARR2PB-eGFP LNCaP cells, 0.1 nM R1881, 3 days, 0-100 μM compound; read-out: IC50 (eGFP)
Experimental: After 5 days, the cells were plated into a 96-well plate (35,000 cells/well) with 0.1 nM of the synthetic androgen R1881 and increasing concentrations (0-100 μM) of compound.
After 5 days, the cells were plated into a 96-well plate (35,000 cells/well) with 0.1 nM R1881 and increasing concentrations (0-100 μM) of compound.
In this assay, the expression of eGFP is under the control of an androgen responsive probasin-derived promoter and can quantify AR transcriptional activity.

IC50 [µM] | SMILES
1.01 | FC(F)(F)c1ccccc1-c1c[nH]c2ccccc12 [13 745]
5.7 | CC1(C)c2cc(Br)ccc2NC1c1c[nH]c2cc(O)ccc12 (stereo not drawn) [13 542]
1.6 | CC1(C)c2ccccc2NC1c1c[nH]c2c(CO)cccc12 (stereo not drawn) [13 558]
11.4 | CC1(C)c2ccccc2NC1c1c[nH]c2cc(OCc3ccccc3)ccc12 (stereo not drawn) [13 544]
2.9 | FC(F)(F)c1ccc2c(-c3ccc4ccccc4n3)c[nH]c2c1 [13 580]
2.3 | CC1(C)c2ccccc2NC1c1c[nH]c2ncccc12 (stereo not drawn) [13 560]
4.9 | c1cncc(-c2c[nH]c3cnccc23)c1 [13 581]
20 | Cc1[nH]c2ccccc2c1-c1ccc2ccccc2n1 [13 570]
6.6 | c1ccc2c(c1)N=C(c1c[nH]c3ncccc13)C21CCCCC1 [13 559]

Same assay, conditions: LN-ARR2PBeGFP LNCaP cells, 0.1 nM R1881, 3 days incubation

SMILES | eGFP IC50
Cc1cc(C)c2nc(-c3c[nH]c4c(C)c(F)ccc34)ccc2c1 [Compound 13636] | Inactive

Same assay, conditions: LN-ARR2PBeGFP LNCaP cells, 0.1 nM R1881, 3 days incubation; read-out: eGFP IC50

IC50 [µM] | SMILES
0.56 | Cc1cccc2c(-c3ccc4cc(F)ccc4n3)c[nH]c12 [Compound 13573]
0.42 | N#Cc1cc(F)cc2c(-c3ccc4cccc(Cl)c4n3)c[nH]c12 [Compound 13732]
2.9 | FC(F)(F)c1ccc2c(-c3ccc4ccccc4n3)c[nH]c2c1 [Compound 13580]
0.8 | Cc1cccc2c(-c3ccc4c(CO)cccc4n3)c[nH]c12 [Compound 13680]
12.7 | Clc1ccc(Cl)c2c(-c3ccc4ccccc4n3)c[nH]c12 [Compound 13640]
1.6 | Fc1cccc2c(-c3ccc4ccccc4n3)c[nH]c12 [Compound 13569]

Continued, compound first:

SMILES | IC50 [µM]
Brc1ccc2c(c1)CC(c1c[nH]c3ccc(Br)cc13)N2 (stereo not drawn) [Compound 13503] | 4.5
c1ccc(COc2ccc3c(C4Nc5ccccc5C45CCCCC5)c[nH]c3c2)cc1 (stereo not drawn) [Compound 13550] | 11.8
Cn1c(-c2c[nH]c3ccccc23)cc2ccccc21 [Compound 13505] | 3.4
Cn1cc(-c2ccc3ccccc3n2)c2ccccc21 [Compound 13571] | 1.1
Cc1[nH]c2ccccc2c1SCc1ccccc1F [Compound 13224] | 5
c1ccc(-c2ccccc2/N=N/c2c[nH]c3ccccc23)cc1 [Compound 13258] | 6.8
CC1(C)c2cc(Br)ccc2NC1c1c[nH]c2cc(O)ccc12 (stereo not drawn) [Compound 13542] | 5.7
Clc1ccc(N/N=C2\CCc3ccccc32)cc1Cl [Compound 13215] | 2
Cc1[nH]c2ccccc2c1-c1ccc2ccccc2n1 [Compound 13570] | 20
Cc1cccc2c(-c3ccc4nccnc4n3)c[nH]c12 [Compound 13644] | 3
Cn1cc(C2Nc3ccccc3C2(C)C)c2ccccc21 (stereo not drawn) [Compound 13516] | 3.6
Oc1ccc2c(C3Nc4ccccc4C34CCCCC4)c[nH]c2c1 (stereo not drawn) [Compound 13551] | 15.5
Cc1ccc(/N=C/c2c[nH]c3ccccc23)cc1C [Compound 13310] | 10.3
Brc1ccc2c(c1)NC(c1c[nH]c3ccc(Br)cc13)C2 (stereo not drawn) [Compound 13502] | 4.1
Cc1cccc2c1CCN2c1nc2ccccc2o1 [Compound 13260] | 2.7
O=C(Nc1ccc(-n2cnc3ccccc32)cc1)c1ccco1 [Compound 6054] | 3.4
c1ccc2[nH]c(-c3n[nH]c4ccccc34)nc2c1 [Compound 13036] | 1.6
O=C(Nc1n[nH]c2cc(Br)ccc12)c1cc(Br)ccc1O [Compound 9027] | 7.72
O=Nn1cc(-c2cc3ccccc3n2N=O)c2ccccc21 [Compound 13206] | 1.8
O=C(Nc1cccc(Br)c1O)c1cc2ccc(Br)cc2[nH]1 [Compound 9037] | 4.09
c1ccc2c(c1)N=C(c1c[nH]c3cnccc13)C21CCCCC1 [Compound 13559] | 6.6
O=c1[nH]c2ccccc2n1-c1nc2ccccc2[nH]1 [Compound 13214] | 2.2
O=C(/C=C/c1c[nH]c2cc(Br)ccc12)c1cc2ccccc2[nH]1 [Compound 9034] | 20
N#Cc1cccc2c(-c3ccc4cccc(Cl)c4n3)c[nH]c12 [Compound 13785] | 0.036
Cc1ccc(/N=N/c2c[nH]c3ccccc23)cc1 [Compound 13257] | 4.2
Cc1cccn2cc(-c3c[nH]c4ccccc34)nc12 [Compound 13216] | 2.8
Brc1ccc2[nH]c(-c3nc4ccccc4s3)cc2c1 [Compound 13540] | 2.5

System: PSA
Experiment: Prostate Surface Antigen (PSA) assay, PSA excreted into the media
Format: cell-based, human
Conditions: Homo sapiens, 72 h, PSA excreted into media, same plates as eGFP assay, 3 days incubation; read-out: PSA IC50
Experimental: The evaluation of PSA excreted into the media was performed in parallel to the eGFP assay using the same plates (see above description). After the cells were incubated for 3 days 150 μl of the media was taken from each well, and added to 150 μl of PBS.

IC50 [µM] | SMILES
0.13 | Cc1cccc2c(-c3ccc4cccc(Cl)c4n3)c[nH]c12 [Compound 13593]
0.082 | Cc1cccc2c(-c3ccc4cccc(F)c4n3)c[nH]c12 [Compound 13692]
0.156 | Cc1cccc2c(-c3cnc4ccccc4c3)c[nH]c12 [Compound 13643]
0.025 | Fc1ccc2c(-c3ccc4ccccc4n3)c[nH]c2c1Cl [Compound 13642]
0.087 | Cc1c(F)ccc2c(-c3ccc4ccccc4n3)c[nH]c12 [Compound 13607]
1.43 | Cc1cccc2c(-c3ccc4ccc(Cl)cc4n3)c[nH]c12 [Compound 13606]
0.182 | Cc1cccc2c(-c3ccc4c(C(F)(F)F)cccc4n3)c[nH]c12 [Compound 13602]
1.16 | Clc1cc(Cl)c2[nH]cc(-c3ccc4ccccc4n3)c2c1 [Compound 13627]
0.165 | Cc1cc(F)cc2c(-c3ccc4ccccc4n3)c[nH]c12 [Compound 13601]
0.13 | Fc1ccc2c(-c3ccc4ccccc4n3)c[nH]c2c1F [Compound 13618]
0.121 | Cc1cccc2c(-c3ccc4ccc(F)cc4n3)c[nH]c12 [Compound 13611]
0.11 | Cc1cccc2c(-c3ccc4cccc(Br)c4n3)c[nH]c12 [Compound 13677]
1.23 | Cc1cc(Cl)c2[nH]cc(-c3ccc4ccccc4n3)c2c1 [Compound 13625]
0.013 | Fc1cc(F)c2[nH]cc(-c3ccc4ccccc4n3)c2c1 [Compound 13610]
0.403 | Fc1cc(Cl)cc2c(-c3ccc4ccccc4n3)c[nH]c12 [Compound 13641]
0.042 | Fc1cc(Cl)c2[nH]cc(-c3ccc4ccccc4n3)c2c1 [Compound 13624]

Further lines, the compound ahead of its results:

SMILES | IC50 [µM]
Clc1cccc2c(-c3ccc4ccccc4n3)c[nH]c12 [Compound 13622] | 0.075
Cc1cccc2c(-c3ccc4ccccc4n3)c[nH]c12 [Compound 13566] | 0.011
Fc1cc2c(-c3ccc4c(C(F)(F)F)cccc4n3)c[nH]c2c(F)c1F [Compound 13761] | 0.383
CNC(=O)c1cccc2nc(-c3c[nH]c4c(C)cccc34)ccc12 [Compound 13597] | 0.132
Cc1ccc(/N=C/c2c[nH]c3ccccc23)cc1 [Compound 13247] | 0.43

Same assay, conditions: Homo sapiens, 72 h, read-out: IC50 (PSA)

SMILES | IC50 [µM]
Cc1cccc2c(-c3ccc4ccccc4n3)c[nH]c12 [13 566] | 0.056

Same assay, conditions: Homo sapiens, 72 h, same plates as eGFP assay, media after 3 days; read-out: IC50 (PSA)

IC50 [µM] | SMILES
0.95 | FC(F)(F)c1ccccc1-c1c[nH]c2ccccc12 [13 745]
0.11 | Cc1cccc2c(-c3ccc4cccc(Br)c4n3)c[nH]c12 [13 677]

Same assay, conditions: PSA excreted into media, same plates as eGFP assay, 3 days incubation

SMILES | PSA IC50
Cc1cc(C)c2nc(-c3c[nH]c4c(C)c(F)ccc34)ccc2c1 [Compound 13636] | Inactive
c1ccc(-c2nc3ccccc3[nH]2)cc1 [Compound 13686] | Inactive

Same assay, conditions: PSA excreted into media, same plates as eGFP assay, 3 days incubation; read-out: PSA IC50

IC50 [µM] | SMILES
0.16 | Cc1cccc2c(-c3cnc4ccccc4c3)c[nH]c12 [Compound 13654]
0.051 | CNC(=O)c1cccc2nc(-c3c[nH]c4c(F)c(F)c(F)cc34)ccc12 [Compound 13754]

Same assay, conditions: same plates as eGFP assay, media after 3 days

SMILES | IC50 (PSA)
c1ccc(-c2nc3ccccc3[nH]2)cc1 [13 686] | IC50 (PSA) = Inactive
